These results are taken from publication PMC12345137 (mBio, 2025).

Where two headings read alike, the source gives them in different places. Positions of bridges follow the written chain, without caps; N, C: chain ends. Residues, ends and D or L forms follow the SMILES beside them. Where only a bound is given, the exact number is not on record here.

Test [1] has as its system S. aureus (SA) agr-IV. The conditions noted are these: fluorescence; ref (10); cited from earlier work.
Test [2] concerns S. aureus (SA) agr-IV. Further details: method as in ref (9) (a number printed in a supplementary file, which may have a reference list of its own: not looked up in the article's list). The following applies: HPLC d-toxin, ref (9); cited from earlier work.
A further test relates to S. aureus (SA) agr-I. Also on record: method as in ref (9) (a number printed in a supplementary file, which may have a reference list of its own: not looked up in the article's list). The following applies: HPLC d-toxin; ref (9); cited from earlier work.
A further test concerns the target S. epidermidis agr-III (Staphylococcus epidermidis, UniProt Q8VSX2). The test is described as follows: cell-based. Type of test: cell-based. The method, boiled down: (§1)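 Reporter strains, with YFP (S. aureus) or sGFP (S. epidermidis) under agr P3, were diluted 1:100 from overnight TSB cultures with antibiotic and exposed to peptides for 22–24 h at 37°C, shaking. Background-subtracted fluorescence was normalized to OD600 and expressed relative to peptide-free control wells; IC50 came from variable-slope non-linear regression.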

For another test, the target named is S. aureus agr-IV (Staphylococcus aureus, UniProt Q309Z2). Put plainly: cell-based. Format: cell-based. The following applies: fluorescent reporter strain; peptides tested at 1000, 50, 2.5, 0.125 nM or in dose-response. The procedure, abridged:
as §1

Test [3] has as its system S. aureus (SA) agr-III. The following applies: fluorescence; ref (10); cited from earlier work.
Another test addresses SA AgrC-IV (Staphylococcus aureus, UniProt Q309Z2). The test is described as follows: β-Lactamase assay, reporter strain RN10829 (P2-agrA:P3-blaZ) with pagrC-IV. Type of test: cell-based. The conditions noted are these: 100 nM cognate AIP; ± SEM; -b = no inhibition recorded at the highest AIP concentration tested; -a = only partial inhibition observed; this study (curves in Fig. S22). The method, boiled down:
(§2)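 Peptides at 10 μM–10 pM final were tested against 100 nM cognate AIP on early-exponential RN10829 cells that express the relevant AgrC from a plasmid and carry a chromosomal P3-blaZ reporter; incubation 1 h at 37°C. After freezing, β-lactamase was read as nitrocefin conversion at OD486, and IC50 came from non-linear regression of the rates.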

Test [4] has as its system S. aureus (SA) agr-II. The following applies: fluorescence; ref (10); cited from earlier work.
The test system of test [5] is S. aureus (SA) agr-III. Further details: method as in ref (9) (a number printed in a supplementary file, which may have a reference list of its own: not looked up in the article's list). The conditions noted are these: HPLC d-toxin; ref (9); cited from earlier work.
Another test addresses SA AgrC-III (Staphylococcus aureus, UniProt O33590). The test is described as follows: β-Lactamase assay, reporter strain RN10829 (P2-agrA:P3-blaZ) with pagrC-III. Type of test: cell-based. The procedure, abridged: as §2
Test [6] concerns S. epidermidis (SE) agr-I. The conditions noted are these: fluorescence, cited from earlier work.
Test [7] deals with S. epidermidis (SE) agr-II. The conditions noted are these: fluorescence; from supernatant; ref (18); cited from earlier work.
Another test deals with SA AgrC-II (Staphylococcus aureus, UniProt O33587). The test is described as follows: β-Lactamase assay, reporter strain RN10829 (P2-agrA:P3-blaZ) with pagrC-II. Type of test: cell-based. The following applies: 100 nM cognate AIP; ± SEM; -b = no inhibition recorded at the highest AIP concentration tested; -a = only partial inhibition observed; this study (curves in Fig. S20). The procedure, abridged:
as §2

In test [8] the test system is S. epidermidis (SE) agr-III. The conditions noted are these: fluorescence; from supernatant; ref (18); cited from earlier work.
For test [9], the system named is S. aureus (SA) agr-II. Further details: method as in ref (9) (a number printed in a supplementary file, which may have a reference list of its own: not looked up in the article's list). The conditions noted are these: HPLC d-toxin; ref (9); cited from earlier work.
In a further test the target is S. aureus agr-II (Staphylococcus aureus, UniProt O33587). Put plainly: cell-based. The procedure, abridged:
as §1

For another test, the target named is S. lugdunensis agr-I (Staphylococcus lugdunensis, UniProt Q8VSW5). Put plainly: cell-based. The conditions noted are these: fluorescent reporter strain; peptides tested at 1000, 50, 2.5, 0.125 nM or in dose-response. The procedure, abridged:
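Fluorescence of the agr-driven P3 reporter, read after 22–24 h of growth with peptide at 37°C, was corrected for medium background and divided by OD600. Activity is given relative to wells without peptide, and IC50 values were fitted by non-linear regression with variable slope.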

Sequence of S. lugdunensis agr-I (Q8VSW5 entry or part of it): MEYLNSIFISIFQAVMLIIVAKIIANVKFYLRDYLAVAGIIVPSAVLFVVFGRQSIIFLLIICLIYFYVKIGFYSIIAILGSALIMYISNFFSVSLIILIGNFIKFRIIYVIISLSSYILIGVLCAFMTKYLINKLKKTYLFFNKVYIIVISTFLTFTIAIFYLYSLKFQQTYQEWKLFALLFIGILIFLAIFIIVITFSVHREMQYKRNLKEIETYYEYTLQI
Sequence of SA AgrC-III (O33590 entry or part of it): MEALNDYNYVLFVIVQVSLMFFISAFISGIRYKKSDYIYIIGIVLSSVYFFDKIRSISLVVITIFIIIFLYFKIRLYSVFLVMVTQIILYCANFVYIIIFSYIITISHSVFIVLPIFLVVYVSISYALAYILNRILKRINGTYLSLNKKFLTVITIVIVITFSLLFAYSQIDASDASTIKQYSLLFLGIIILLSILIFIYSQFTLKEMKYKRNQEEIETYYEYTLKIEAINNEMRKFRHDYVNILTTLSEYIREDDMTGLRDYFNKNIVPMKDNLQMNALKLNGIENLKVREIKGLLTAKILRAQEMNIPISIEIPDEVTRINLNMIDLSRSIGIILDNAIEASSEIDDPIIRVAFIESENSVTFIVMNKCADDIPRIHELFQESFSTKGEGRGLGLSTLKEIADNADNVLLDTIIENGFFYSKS
Sequence of S. aureus agr-II (O33587 entry or part of it): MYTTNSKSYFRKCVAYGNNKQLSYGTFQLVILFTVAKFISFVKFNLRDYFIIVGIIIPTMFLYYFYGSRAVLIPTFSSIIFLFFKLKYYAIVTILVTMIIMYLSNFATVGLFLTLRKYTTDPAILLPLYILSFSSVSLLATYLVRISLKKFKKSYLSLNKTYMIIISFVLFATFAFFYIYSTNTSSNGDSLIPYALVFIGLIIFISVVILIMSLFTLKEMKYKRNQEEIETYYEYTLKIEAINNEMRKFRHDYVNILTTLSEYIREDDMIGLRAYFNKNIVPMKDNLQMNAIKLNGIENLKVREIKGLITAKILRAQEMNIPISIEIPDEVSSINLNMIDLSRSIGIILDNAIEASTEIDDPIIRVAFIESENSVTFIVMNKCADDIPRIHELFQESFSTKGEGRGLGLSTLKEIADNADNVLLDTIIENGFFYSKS
Sequence of SA AgrC-II (O33587 entry or part of it): as above
Sequence of S. epidermidis agr-III (Q8VSX2 entry or part of it): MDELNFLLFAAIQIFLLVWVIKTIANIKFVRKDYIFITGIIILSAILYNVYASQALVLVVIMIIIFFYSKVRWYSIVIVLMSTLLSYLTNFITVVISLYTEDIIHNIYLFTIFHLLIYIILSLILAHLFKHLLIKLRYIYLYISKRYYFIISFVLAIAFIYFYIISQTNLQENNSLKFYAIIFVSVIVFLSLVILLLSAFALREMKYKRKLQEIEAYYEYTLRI
Sequence of SA AgrC-IV (Q309Z2 entry or part of it): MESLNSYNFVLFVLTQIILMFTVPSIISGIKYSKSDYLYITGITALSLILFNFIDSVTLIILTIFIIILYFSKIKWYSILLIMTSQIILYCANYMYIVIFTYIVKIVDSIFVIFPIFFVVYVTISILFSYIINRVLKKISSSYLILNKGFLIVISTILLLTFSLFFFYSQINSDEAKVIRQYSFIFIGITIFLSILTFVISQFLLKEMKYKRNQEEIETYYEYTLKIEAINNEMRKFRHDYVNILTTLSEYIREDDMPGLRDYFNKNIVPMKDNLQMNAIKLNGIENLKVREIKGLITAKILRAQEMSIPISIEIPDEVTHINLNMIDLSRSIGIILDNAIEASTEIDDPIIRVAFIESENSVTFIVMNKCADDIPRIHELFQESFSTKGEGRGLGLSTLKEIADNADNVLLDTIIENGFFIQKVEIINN
Sequence of S. aureus agr-IV (Q309Z2 entry or part of it): as above

As to `CC(C)[C@H](NC(=O)[C@H](CO)NC(=O)[C@@H](N)CC(=O)O)C(=O)N[C@H]1CSC(=O)[C@H](Cc2ccccc2)NC(=O)[C@H](Cc2ccc(O)cc2)NC(=O)[C@H](CO)NC(=O)[C@H](C)NC1=O` [compound 5, S. epidermidis AIP-I] (H-DSVCASYF; thioester 4-C), the half-inhibitory concentration (IC50) (in general, the point on the concentration scale where inhibition reaches its midpoint) is above 1000 nM in the test with S. aureus (SA) agr-IV [1]; around 250 nM in the test on S. aureus (SA) agr-I; 8.6 ± 0.7 nM at S. epidermidis agr-III; 13 nM with S. aureus (SA) agr-III [3]; above 1000 nM in the test on S. aureus (SA) agr-II [4]; around 10 nM in the test with S. aureus (SA) agr-III [5]. The concentration for half-maximal inhibition (IC50) is above 1000 nM against SA AgrC-III, 30 to 40 nM with S. aureus (SA) agr-II [9] and 858 nM against S. aureus agr-II. The “inhibition at 1000 nM, SA agr-IV” value with S. aureus (SA) agr-IV [2] is recorded as “no inhibition”. Besides, on S. aureus agr-IV, the “QS interaction in words (inhibition / activation), S. aureus agr-IV” value is “no effect at 1000 nM”. Besides, on SA AgrC-IV, the “IC50, SA AgrC-IV, b-lactamase assay” value is “-b”. The “effect from supernatant (% inhibition, activation or no effect), SE agr-I” value in [6] (from supernatant, ref (18)) is “activation”. The half-maximal effective concentration (EC50) – broadly, the concentration at which the effect is half-maximal – in [6] (ref (11)) was 196 nM. Besides, in [7], the “effect from supernatant (% inhibition, activation or no effect), SE agr-II” value is ~ 90%. Besides, the “IC50, SA AgrC-II, b-lactamase assay” value against SA AgrC-II is “-b”. Besides, the “effect from supernatant (% inhibition, activation or no effect), SE agr-III” value in [8] is reported as ~ 90%. The “QS interaction in words (inhibition / activation), S. lugdunensis agr-I” value at S. lugdunensis agr-I is listed as “no effect at 1000 nM”.
